# Experimental data published in patent US9611246B2, “Compositions, apparatus, systems, and methods for resolving electronic excited states” (HALLSTAR INNOVATIONS CORP., priority 2012, dated 2017).
# System: HaCat cells
# Experiment: Cell viability of ALA-treated HaCat cells after red light irradiation
# Format: cell-based, human
# Conditions: 1 mM
# Description: HaCat cells were seeded in 96-well plates and grown to confluence. Confluent cells were treated with 8 mM ALA for 2 hours. Cells then received 1 mM of Formula II(a)(1), II(b)(1)+II(c)(1), or II(bk). Following a one-hour incubation, cells were irradiated for 3 minutes and immediately washed with naïve cell culture media once. Additional cell culture media was added and the cells were cultured for 24 hours. A cell viabilty agent was added to each well and incubated for 2 hours. Cell viability was analyzed at the conclusion of this incubation by measuring the fluorescence intensity (excitation/emission 560/590) of each well. Results shown in FIG. 26 indicate that control cells (without conjugated fused polycyclic compound treatment) were almost completely killed by phototoxic ROS induced by ALA and light irradiation. Cell viability (cell metabolic activity) of light irradiated cells (without conjugated fused polycyclic) was only […] of normal cell control (no treatment). […] About 50% of Formula II(a)(1) treated cells survived, while cells without conjugated fused polycyclic compound exposure and cells treated with II(bk) were almost 100% dead. […] The Formula II(a)(1) was also observed to protect cells from light irradiation induced injury (relative cell viability 61%). […]
smiles,measurement,setting,value
COC(=O)C(C#N)=C1c2ccccc2C(=O)c2ccccc21 [Formula II(a)(1)],relative cell viability,"8 mM ALA, 3 minutes irradiation, 24 hours culture, vs normal cell control",61%
same,treated cells that survived,after irradiation,About 50%
